The values that follow come from patent US5585352A, “Method of treating septic shock using thymosin-α 1” (The George Washington University Medical Center, priority 1994, dated 1996).

In the assay the test system is Rats with Septic Shock. Briefly: Survival in septic shock model in rats (peritonitis by cecal ligation and puncture). The format is in vivo, Sprague-Dawley rats. Conditions: Table XV, rats with peritonitis, both groups got antibiotic (gentamicin sulfate, 1 mg/rat), 10 at 0 hr. The text has this: Using a septic shock model in rats (Sprague-Dawley, male, 200-225 g each), the effect of thymosin α1 alone and together with antibiotics was studied. Peritonitis was induced in rats in the following way. A 1-cm incision was made into the peritoneal which exposed the cecum. A tight ligature was placed around the cecum with 4-0 suture distal to the insertion of the small bowel, forming an area of devitalized tissue while maintaining bowel continuity. A puncture wound was made with 16-gauge needle into the anti-mesenteric surface of the cecum and a small amount of fecal contents was expressed through the wound. The cecum was replaced into the peritoneal cavity, and the anterior peritoneal wall and skin were closed with surgical staples. Each animal was given a bolus of normal saline (15 ml/kg) for hydration and allowed to recover overnight.
*gentamicin sulfate, 1 mg/rat
**At 0 hr, 2 hr, and 4 hr post induction of peritonitis

For the substance “gentamicin sulfate [antibiotic, reference compound]”, for the setting “thymosin α1 1 mg/rat × 3”, the “Survival of Sprague-Dawley rats, 48 hr” value came out at 1 and the “Survival of Sprague-Dawley rats, 72 hr” value is listed as 0. In addition, the “Survival of Sprague-Dawley rats, 24 hr” value (thymosin α1 1 mg/rat × 3 at 0, 2 and 4 hr post induction) is recorded as 1.
